Legend:
Type in all cases: in vivo
[1] = system: Ultradwarf Bermudagrass; test: Evapotranspiration of treated turfgrass samples at various vapor pressure deficits in the growth chamber (Example 3); conditions: ASM 30.8 g/ha per spray, 15 applications at 14 day intervals, with chlorothalonil, fluazinam and azoxystrobin products; vs Control without ASM; samples July 2015 and September 2015
Text: (§1) Fifteen applications of treatments were made on 14 day intervals through the season (starting in May and extending through October) on Ultradwarf Bermudagrass on golf course greens. The treatments included (1) a Control that included products with the active ingredients of chlorothalonil, fluazinam and azoxystrobin and no ASM and (2) a treatment that included products with the same active ingredients and rates of the Control treatment, but also included 30.8 g/ha rate of ASM for each spray.
(§2) Turfgrass Samples from the treated plots were taken from a) the ASM treated plots as well b) the Control plots without acibenzolar-s-methyl at two different timings—July 2015 and September 2015. All samples were tested for evapotranspiration at various vapor pressure deficits (VPD) in the growth chamber. The results of the testing are illustrated in FIGS. 9-12.

[2] = system: Ultradwarf Bermudagrass; test: Turf quality and phytotoxicity on golf course greens (Example 3); conditions: ASM 30.8 g/ha per spray, 15 applications at 14 day intervals
Text: as §1, §2

[3] = system: warm-season turfgrasses; test: Abiotic stress and phytotoxicity at stated application rates on warm-season turfgrasses; conditions: ASM between about 4 and about 200 g/ha per application
Text: As indicated above, the methods of the present invention may be useful in suppressing abiotic stress or stresses in warm-season turfgrasses. In some embodiments of the present invention, ASM may be applied at a rate of between about 4 and about 200 g/ha per application. In further embodiments of the invention, ASM may be applied at a rate between about 12 and about 150 g/ha per application, or between 12 and about 96 g/ha per application, or between about 12 and about 64 g/ha per application, or between about 12 and about 32 g/ha per application, or between about 32 and about 140 g/ha per application, or between about 32 and about 96 g/ha per application, or between about 32 and about 64 g/ha per application, or between about 64 and about 140 g/ha per application, or between about 64 and about 96 g/ha per application, or between about 96 and about 140 g/ha per application.

[4] = system: cool-season grasses; test: Phytotoxicity at stated application rates on cool-season grasses; conditions: ASM between about 4 and about 200 g/ha per application

## CSC(=O)c1cccc2nnsc12 [ASM, S-methyl benzo[1,2,3]thiadiazole-7-carbothioate]
[1]
  evapotranspiration as VPD increases: overall reduced evapotranspiration
[2]
  phytotoxicity to the turfgrass: did not result in any unacceptable phytotoxicity
[2]; with chlorothalonil, fluazinam and azoxystrobin products
  turf quality under drought or heat stress: improved turf quality
[3]
  phytotoxicity to warm-season turfgrasses: avoiding unacceptable phytotoxicity
[4]
  phytotoxicity to cool-season grasses: unacceptable levels of phytotoxicity

Source: US20220287306A1, “METHOD FOR IMPROVING TURFGRASS ABIOTIC STRESS TOLERANCE” (SYNGENTA PARTICATIONS AG, priority 2014, published 2022)
